Assay results published in patent US6808892B1, “Method for identifying inhibitors of IPC synthase” (AstraZeneca AB, priority 1998, dated 2004).
*1 amine or outer side, *2 acyl side, *3 side chain or, on linkers, in order; H or OH if unused. Where a SMILES comes first, the peptide text is derived from it. [ ]: non-standard residue; d: D form. X1 = CC[C@@H](C)[C@@H](O[*:1])C(=O)[*:2]; NMeVal(β-OH) = CN[C@H](C(=O)O)C(C)(C)O; NMeF = CN[C@@H](Cc1ccccc1)C(=O)O; aIle = CC[C@@H](C)[C@H](N)C(=O)O; NMeV = CN[C@H](C(=O)O)C(C)C

Test system: strain lcb1::kanMX, pNS149
Test: IPC synthase screen: growth inhibition of the engineered yeast strain with or without added phytosphingosine
Assay type: cell-based, S. cerevisiae
Excerpt: Therefore in a first aspect of the present invention we provide a screening assay for identifying a selective IPC synthase inhibitor which assay comprises contacting a test compound with engineered cells whose capability to synthesize sphingolipids depends on the addition of exogenous phytosphingosine and which are capable of sustained growth via compensatory phospholipids, adding phytosphingosine, and determining IPC synthase inhibition by the test compound by reference to any cell growth inhibition.
The utility of the lcb1::kanMX pNS149 strain to identify inhibitors of IPC synthase was evaluated using aureobasidinA as a test compound. The lcb1::kanMX pNS149 strain is a further independent aspect of the invention.
Inhibition of growth by aureobasidinA in strain lcb1::kanMX, pNS149 with added phytosphingosine.
Inhibition of growth by aureobasidinA in strain lcb1::kanMX, pNS149 without added phytosphingosine.

With `CC[C@@H](C)[C@@H]1NC(=O)[C@@H]2CCCN2C(=O)[C@H](Cc2ccccc2)N(C)C(=O)[C@H](Cc2ccccc2)NC(=O)[C@H](C(C)C)N(C)C(=O)[C@@H]([C@H](C)CC)OC(=O)[C@H](C(C)(C)O)N(C)C(=O)[C@H](CC(C)C)NC(=O)[C@H](C(C)C)N(C)C1=O` [aureobasidinA] (cyclo(F[NMeF]P[aIle][NMeV]L[NMeVal(β-OH)][X1][NMeV])) the Inhibition of growth (pNS149, with added phytosphingosine (FIG. 1a)) was “very pronounced” and the Inhibition of growth (pNS149, without added phytosphingosine (FIG. 1b)) was “absent”.
